Reference: ChEMBL document CHEMBL1201862, “PubChem BioAssay data set” (2004)
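Protocol summary: plate cells (96-well), add compound at 5 concentrations, incubate 48 h, interpolate endpoints linearly. GI50 is the concentration that inhibits growth by half.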 Activity calls are given as the source filed them. Cut-off read from the data, not from the text of the source: active = GI50 up to about 1.1 µM and inactive = higher.

Key:
Experiment in all cases: DTP human tumour cell line panel, 48 h
[1] = test system: UO-31
[2] = test system: CAKI-1
[3] = test system: COLO 205
[4] = test system: OVCAR-5
[5] = test system: KM12
[6] = test system: SF-295
[7] = test system: SNB-75
[8] = test system: SN12C
[9] = test system: IGROV-1
[10] = test system: EKVX
[11] = test system: HCT-15
[12] = test system: A498
[13] = test system: MDA-N
[14] = test system: PC-3
[15] = test system: OVCAR-3
[16] = test system: A549
[17] = test system: SF-268
[18] = test system: RXF 393
[19] = test system: OVCAR-4
[20] = test system: CCRF-CEM

Row | Compound | GI50 [1] | GI50 [2] | GI50 [3] | GI50 [4] | GI50 [5] | GI50 [6] | GI50 [7] | GI50 [8] | GI50 [9] | GI50 [10] | GI50 [11] | GI50 [12] | GI50 [13] | GI50 [14] | GI50 [15] | GI50 [16] | GI50 [17] | GI50 [18] | GI50 [19] | GI50 [20]
1 | NCCCN1CCN(c2ccccc2)CC1 | > 100 µM (inactive) | > 100 µM (inactive) | 78.7 µM (inactive) | > 100 µM (inactive) | > 100 µM (inactive) | 10.2 µM (inactive) | > 100 µM (inactive) | > 100 µM (inactive) | > 100 µM (inactive) | > 100 µM (inactive) | > 100 µM | > 100 µM (inactive) | > 100 µM (inactive) | 33.4 µM (inactive) | 10.7 µM (inactive) | > 100 µM (inactive) | > 100 µM (inactive) | > 100 µM (inactive) | > 100 µM (inactive) | –
2 | Clc1ccccc1NN(Cc1ccccn1)c1ccccc1Cl | 20.4 µM (inactive) | 54.3 µM (inactive) | 15.6 µM (inactive) | 20.9 µM (inactive) | 16.9 µM (inactive) | 30.1 µM (inactive) | 20.1 µM (inactive) | 18.8 µM (inactive) | 20.2 µM (inactive) | 23 µM (inactive) | 24.9 µM | 20.5 µM (inactive) | 17.2 µM (inactive) | 29.2 µM (inactive) | 18.1 µM (inactive) | 16.7 µM (inactive) | 22.7 µM (inactive) | 14.9 µM (inactive) | 16.2 µM (inactive) | –
3 | CCc1cn(C2CC(CO)C(CO)S2)c(=O)[nH]c1=O (stereo not given) | > 100 µM (inactive) | > 100 µM (inactive) | > 100 µM (inactive) | > 100 µM (inactive) | > 100 µM (inactive) | > 100 µM (inactive) | > 100 µM (inactive) | > 100 µM (inactive) | > 100 µM (inactive) | > 100 µM (inactive) | > 100 µM | > 100 µM (inactive) | > 100 µM (inactive) | > 100 µM (inactive) | > 100 µM (inactive) | > 100 µM (inactive) | > 100 µM (inactive) | > 100 µM (inactive) | > 100 µM (inactive) | > 100 µM (inactive)
4 | O=c1oc2ccc(Cl)cc2c2ccccc12 | – | 43 µM (inactive) | 65.8 µM (inactive) | 78.3 µM (inactive) | – | 34.4 µM (inactive) | 39.2 µM (inactive) | > 100 µM (inactive) | 71.8 µM (inactive) | 10.8 µM (inactive) | > 100 µM | 75.7 µM (inactive) | > 100 µM (inactive) | > 100 µM (inactive) | > 100 µM (inactive) | 63.4 µM (inactive) | 20.7 µM (inactive) | 22.1 µM (inactive) | > 100 µM (inactive) | > 100 µM (inactive)
5 | CC(C)(C)N1CSC(=S)N(Cc2ccco2)C1 | 2.38 µM (inactive) | 2.83 µM (inactive) | 3.65 µM (inactive) | 3.1 µM (inactive) | 2.7 µM (inactive) | 15.8 µM (inactive) | 12.8 µM (inactive) | 4.35 µM (inactive) | 2.55 µM (inactive) | 14.4 µM (inactive) | 2.56 µM | 13.3 µM (inactive) | 2.85 µM (inactive) | 3.35 µM (inactive) | 1.94 µM (inactive) | 5.4 µM (inactive) | 3.93 µM (inactive) | 5.87 µM (inactive) | 12.1 µM (inactive) | 1.08 µM (active)
6 | CCOC(=O)/C(C(=O)Nc1ccc(F)cc1)=C(/N)N1CCOCC1 | – | > 100 µM (inactive) | > 100 µM (inactive) | > 100 µM (inactive) | > 100 µM (inactive) | > 100 µM (inactive) | > 100 µM (inactive) | > 100 µM (inactive) | > 100 µM (inactive) | > 100 µM (inactive) | > 100 µM | > 100 µM (inactive) | > 100 µM (inactive) | > 100 µM (inactive) | > 100 µM (inactive) | > 100 µM (inactive) | > 100 µM (inactive) | > 100 µM (inactive) | > 100 µM (inactive) | > 100 µM (inactive)
7 | c1ccc(C(CCN2CC3CCC(CC3)C2)c2ccccc2)cc1 | 14.9 µM (inactive) | 37.9 µM (inactive) | 12.6 µM (inactive) | 20.1 µM (inactive) | 23.9 µM (inactive) | 26 µM (inactive) | 24.2 µM (inactive) | 26.4 µM (inactive) | 31 µM (inactive) | 37.8 µM (inactive) | 21.8 µM | 15.6 µM (inactive) | 23 µM (inactive) | 31.5 µM (inactive) | 20.2 µM (inactive) | 31.2 µM (inactive) | 25.6 µM (inactive) | 18.8 µM (inactive) | 38.7 µM (inactive) | –
8 | COc1ccc(C(=O)O[C@@H]2CCN3CC[C@H](C)[C@H]23)cc1 | 58.1 µM (inactive) | > 100 µM (inactive) | > 100 µM (inactive) | > 100 µM (inactive) | > 100 µM (inactive) | > 100 µM (inactive) | > 100 µM (inactive) | > 100 µM (inactive) | > 100 µM (inactive) | > 100 µM (inactive) | > 100 µM | > 100 µM (inactive) | > 100 µM (inactive) | > 100 µM (inactive) | > 100 µM (inactive) | > 100 µM (inactive) | > 100 µM (inactive) | 45.9 µM (inactive) | – | –
9 | C[C@@H](CC(=O)O)OC1OC(COC(=O)C(C)(C)C)C(OC(=O)C(C)(C)C)C(OC(=O)C(C)(C)C)C1OC(=O)C(C)(C)C (stereo not given in full) | > 10 µM (inactive) | 62.2 µM (inactive) | 32.8 µM (inactive) | > 100 µM (inactive) | 45.7 µM (inactive) | 50.5 µM (inactive) | 72.8 µM (inactive) | 48.2 µM (inactive) | 72.3 µM (inactive) | 93.5 µM (inactive) | 32.4 µM | > 100 µM (inactive) | 69.7 µM (inactive) | 46.9 µM (inactive) | 64.7 µM (inactive) | 45 µM (inactive) | 50.7 µM (inactive) | 45.3 µM (inactive) | – | 26.5 µM (inactive)
10 | CCOC(=O)c1sc2nc(SC)nc3c2c1NCN3c1ccccc1Cl | 70.5 µM (inactive) | 50.8 µM (inactive) | > 100 µM (inactive) | > 100 µM (inactive) | > 100 µM (inactive) | 52.6 µM (inactive) | 24.8 µM (inactive) | > 100 µM (inactive) | 63 µM (inactive) | – | 71.1 µM | 37.8 µM (inactive) | 71.4 µM (inactive) | 29.4 µM (inactive) | 84.5 µM (inactive) | 38.7 µM (inactive) | 38.7 µM (inactive) | 19.3 µM (inactive) | 38.5 µM (inactive) | > 100 µM (inactive)
11 | COc1ccc2c(c1)CC[C@@H]1[C@@H]2CC[C@]2(C)C(=O)/C(=C/c3ccc(C#N)cc3)C[C@@H]12 | > 100 µM (inactive) | > 100 µM (inactive) | > 100 µM (inactive) | > 100 µM (inactive) | > 100 µM (inactive) | 81.3 µM (inactive) | > 100 µM (inactive) | > 100 µM (inactive) | > 100 µM (inactive) | > 100 µM (inactive) | > 100 µM | > 100 µM (inactive) | > 100 µM (inactive) | > 100 µM (inactive) | – | > 100 µM (inactive) | > 100 µM (inactive) | > 100 µM (inactive) | 77.1 µM (inactive) | > 100 µM (inactive)
12 | C[C@@]12C=CC3C/C(=N\C(N)=S)C=C(CCCC4OCCO4)[C@]3(CC1)C2 (stereo not given in full) | 17.6 µM (inactive) | 25.1 µM (inactive) | 13.2 µM (inactive) | 15.7 µM (inactive) | 23.6 µM (inactive) | 23.1 µM (inactive) | 28.6 µM (inactive) | 16.5 µM (inactive) | 14.8 µM (inactive) | 10.3 µM (inactive) | 17.7 µM | 15.5 µM (inactive) | 16 µM (inactive) | 17.4 µM (inactive) | 15.2 µM (inactive) | 21.1 µM (inactive) | 29.4 µM (inactive) | 16 µM (inactive) | 18.4 µM (inactive) | –
13 | OC(C/C=N/Nc1ccccc1)(C(F)(F)Cl)C(F)(F)Cl | 9.98 µM (inactive) | 7.43 µM (inactive) | > 10 µM (inactive) | – | > 10 µM (inactive) | > 10 µM (inactive) | 9.91 µM (inactive) | > 10 µM (inactive) | 6.76 µM (inactive) | > 10 µM (inactive) | 5.2 µM | > 10 µM (inactive) | > 10 µM (inactive) | 4.05 µM (inactive) | 4.84 µM (inactive) | > 10 µM (inactive) | > 10 µM (inactive) | 6.75 µM (inactive) | > 10 µM (inactive) | > 10 µM (inactive)
14 | Cc1ccc(/N=N/C(=N/c2ccccc2)c2ccc(N(CCC#N)CCC#N)cc2)cc1 | 60.3 µM (inactive) | 55.5 µM (inactive) | 21.7 µM (inactive) | 54.2 µM (inactive) | 24.3 µM (inactive) | 27.2 µM (inactive) | 31.1 µM (inactive) | 31.9 µM (inactive) | 20.3 µM (inactive) | 30.6 µM (inactive) | 44.8 µM | 45.4 µM (inactive) | 31.6 µM (inactive) | 17.9 µM (inactive) | 20.1 µM (inactive) | 26.7 µM (inactive) | 40.3 µM (inactive) | 22.3 µM (inactive) | 42.6 µM (inactive) | 35.6 µM (inactive)
15 | c1ccc2c(-c3csc(-c4c[nH]c5ccccc45)n3)c[nH]c2c1 | > 48.1 µM (inactive) | > 100 µM (inactive) | – | > 51.9 µM (inactive) | 14.9 µM (inactive) | 15.4 µM (inactive) | > 22.4 µM (inactive) | > 100 µM (inactive) | > 28.5 µM (inactive) | > 100 µM (inactive) | > 100 µM | > 100 µM (inactive) | 49 µM (inactive) | > 100 µM (inactive) | > 100 µM (inactive) | 96.8 µM (inactive) | > 100 µM (inactive) | > 100 µM (inactive) | > 100 µM (inactive) | –
